Results published in the METLIN SMRT retention time set (Domingo-Almenara et al. 2019).

Experiment: gradient 5% acetonitrile 3 min, to 50% in 2 min, to 85% in 15 min, held 3 min, 100 µL/min
Conditions: column: Zorbax Extend-C18 2.1 x 50 mm; eluents: water / acetonitrile, 0.1% formic acid
Procedure, shortened: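 The mobile phases were water and acetonitrile, each with 0.1% formic acid, pumped at 100 μL/min through a Zorbax Extend-C18 column (2.1 × 50 mm, 1.8 μm). Pure standards were injected as mixtures of ~100 molecules and detected by a quadrupole time-of-flight mass spectrometer in positive and negative ionization mode. Retention time came from computationally picked adduct peaks, each inspected by hand.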

Structure (SMILES)	RP-LC retention time
O=C1CC(c2cc(F)cc(F)c2)Cc2nc(N3CCN(c4ccccc4)CC3)ncc21 (stereo not given)	1270 s
Clc1ccccc1-c1nc2ccccc2[nH]1	663 s
COc1ccc(OC)c(NC(=O)NCCc2cn(C)c3ncccc23)c1	686 s
CCN1C(=O)COc2ccc(-c3csc(NC(=O)CCc4ccccc4)n3)cc21	664 s
Cn1nc(-c2nc(C3CC3)no2)c2c1CCN(C(=O)Nc1ccc(F)cc1)C2	768 s
COc1cccc(C2(C(N)=O)CC2)c1	688 s
COC[C@@H]1CN(S(=O)(=O)c2ccc(C#N)cc2)C[C@H]1c1ccccn1	746 s
CCCCN1CCN(C(=O)COc2ccc(NC(=O)C3CC3)cn2)CC1	570 s
Cc1ccccc1-c1nc(-c2ccc3c(c2)nnn3C)no1	1050 s
O=C(c1ccc(Br)cc1)N1CCc2cc(-c3ccno3)ccc21	1030 s
O=C(C1CCCN(Cc2nc(-c3cccnc3)no2)C1)N1CCc2ccccc21 (stereo not given)	595 s
CCc1nnc(-c2ccc3ccn(CC(=O)NCc4cccs4)c3c2)o1	790 s
O=C(Nc1ccc(N2CCN(C3CCCC3)C2=O)nc1)c1cc(F)cc(F)c1	917 s
O=C(CC1C(=O)NCCN1C(=O)CN1CCN(c2ccccn2)CC1)Nc1ccccc1 (stereo not given)	565 s
Cc1nc(C2(C)CCN(C(=O)CCc3cc(Cl)no3)CC2)no1	750 s
Cc1nn(-c2ccccc2)c(C)c1S(=O)(=O)N1CCC(C(=O)N2CCc3ccccc32)CC1	1020 s
Cc1ccc(Nc2c(-c3ccc(N4CCOCC4)cc3)nc3c(C)cccn23)cc1	739 s
CCCn1ccc2oc(C)c(C(=O)NCc3ccc(C(C)C)cc3)c2c1=O	786 s
CCOCC(=O)N1CCC(c2nc(CNC(=O)C3CCC3)cs2)CC1	623 s
Cc1ccc(NS(=O)(=O)c2cc(-c3[nH]ncc3C(=O)N3CCCCC3)oc2C)c(C)c1	791 s

Structure (SMILES)	RP-LC retention time
CN(C(=O)Cn1nc2n(c1=O)CCCC2)c1ccccc1	632 s
CC(=O)NCc1nc(-c2ccc(Oc3ccc(NC(C)=O)cc3)cc2)no1	662 s
Cc1noc(C)c1Cc1ccc(C(=O)N2CCc3nn(C)c(=O)n3CC2)o1	633 s
O=C(NCc1ccc2c(c1)OCO2)C1COC2(CCN(C(=O)C3CC3)CC2)N1C(=O)c1ccccc1 (stereo not given)	692 s
Cc1cccc2nnc(N3CCN(C(=O)c4cccc(Br)c4)CC3)n12	683 s
O=C(c1csc(S(=O)(=O)N2CCC(C(=O)N3CCCCCC3)CC2)c1)N1CCOCC1	722 s
Cc1ccc(NC(=O)C2CCCN(S(=O)(=O)c3cn(C(C)C)cn3)C2)cc1Cl (stereo not given)	879 s
O=C(NC1CCCCC1)c1nc(Nc2ccc(F)cc2)c2ccccc2n1	883 s
CN1CC[C@@]2(C)c3cc(OC(=O)Nc4ccccc4)ccc3N(C)[C@@H]12	718 s
CCOC(=O)C(C)Oc1ccc2c(c1)O/C(=C\c1cc(Cl)cc3c1OCOC3)C2=O (stereo not given)	1160 s
COc1ccc(-c2noc(Cc3nnc(-c4ccc(Cl)cc4)o3)n2)cc1F	1060 s
O=C(NCc1ccco1)C1CCN(c2nnc3ccc(C(F)(F)F)cn23)CC1	715 s
COc1ccccc1NC(=O)N1CCc2cn(C)c3cccc(c23)C1	944 s
CCOC(=O)c1cccc(NC(=O)C2CCCN(c3nc4ccccc4nc3C(F)(F)F)C2)c1 (stereo not given)	1280 s
CCOc1cccc(-c2noc(Cc3nnc(-c4cccc(Br)c4)o3)n2)c1	1160 s
C=CCN1C(=O)COc2ccc(-c3csc(NC(=O)c4cccc(Cl)c4)n3)cc21	1070 s
CC(=O)Nc1nc2ccc(CC(=O)Nc3ccc(F)cc3)cc2s1	714 s
O=C(O)c1ccccc1N1C(=O)C2C3C=CC(C3)C2C1=O (stereo not given)	621 s
O=C(C1=CN(c2cccc(F)c2)c2cc(Cl)ccc2S1(=O)=O)N1CCCC1	838 s

The remaining lines, values ahead:

RP-LC retention time	Structure (SMILES)
644 s	CSc1ccc(-c2nc3cnccn3c2Nc2ccc(C)cc2C)cc1
722 s	O=C(Nc1ccc(N2CCCCC2=O)cc1)c1cccc2ccccc12
683 s	COc1ccc(NC(=O)C2CCN(c3cnc4nc(C)c(C)nc4c3)CC2)c(C)c1
897 s	CC12CC(c3ccccc3O1)C(C(=O)Nc1cccc(C(F)(F)F)c1)C(=O)N2 (stereo not given)
889 s	CNC(=O)c1cc2c(s1)N(CC1CC1)CCCC2
616 s	COCCC1CCN(C(=O)CCc2c(C)nn(C)c2C)CC1
1140 s	COc1cccc(C2Cn3nnc(-c4nc(-c5ccc(OC)c(F)c5)no4)c3CO2)c1 (stereo not given)
1140 s	CCOc1ccc(-c2cc3c(=O)n(Cc4nc(-c5ccc(Cl)cc5)no4)ncn3n2)cc1
861 s	CCc1cccc(NC(=O)c2c(C)oc3nc(C)nc(N4CCCC4)c23)c1
1180 s	COc1cccc(CNc2ccc(-c3nc(-c4ccc(F)cc4)no3)cn2)c1
860 s	CCOC(=O)C1=C(C)NC2=C(C(=O)C(C(=O)OC)C(C)C2)C1c1ccc(OC)cc1 (stereo not given)
755 s	CC(C)Cn1cc(CCNC(=O)Nc2c(F)cccc2F)c2cccnc21
568 s	Cc1nn(CC(=O)N2CCN(c3ccccn3)CC2)c(=O)c2cccn12
958 s	Cc1nc(-c2cn(C(C)C)c3ncccc23)sc1C(=O)N1CCCCC1
871 s	COc1ccc(Cc2nc3nccc(-c4cccs4)n3n2)cc1
795 s	COCCNC(=O)C(=O)Nc1ccc(Br)cc1
572 s	CCn1cnc2cc(CNC(=O)c3ccsc3)ccc21
823 s	Cc1ccc(C2Cn3cnc(C(=O)N4CCC(C(=O)NCc5ccccc5Cl)CC4)c3CO2)cc1 (stereo not given)
772 s	Cc1nc2ccc3nc(NC(=O)c4snnc4C)sc3c2s1
816 s	CCc1ccc(CN2C(=O)c3c(C(=O)OC)ncn3CC2(C)C(=O)NC2CCCC2)cc1 (stereo not given)
845 s	CCOc1ccc(NC(=O)Cn2c(=O)nc(N3CCC(C)CC3)c3ccccc32)cc1
738 s	CC(C)(C)C(=O)Nc1ccc(C(=O)NCCNC(=O)Nc2ccccc2Cl)cc1
833 s	CCc1ccc(NC(=O)N2CCC(CC(=O)N3CCCCC3)CC2)cc1
836 s	Cc1noc(-c2ccc(OC3CN(C(=O)NCc4ccccc4)C3)cc2)n1
566 s	CC(O)C1CCN(Cc2ccc(Br)o2)CC1 (stereo not given)
1050 s	CCOc1ccc(N2C(=O)C3N=NN(Cc4nc(-c5ccc(Br)cc5)no4)C3C2=O)cc1 (stereo not given)

RP-LC retention time	Structure (SMILES)
830 s	CN(C)S(=O)(=O)c1ccc(NC(=O)N2CCCC(C(=O)Nc3ccc(F)cc3)C2)s1 (stereo not given)
706 s	Cc1ccccc1-c1nc(-c2ccc3c(c2)nnn3CCN2CCOCC2)no1
1090 s	O=S(=O)(c1ccc(-c2noc(-c3cccc(F)c3)n2)cc1)N1CCOCC1
1050 s	CCSc1nnc(-c2nn(C)c3c2CN(S(=O)(=O)c2ccc(C)c(Cl)c2)CC3)n1CC
1110 s	CCn1c(C(=O)Nc2cc(C)cc(C)c2)cc2sc(Cl)cc21
719 s	CC1=C(c2ccccc2)S(=O)(=O)N=C1N1CCCN(C(=O)c2ccco2)CC1
816 s	O=C(NCC1CC1)C1CCCN(c2nccn3nc(-c4ccccc4Cl)cc23)C1 (stereo not given)
814 s	COc1ccc2[nH]cc(CCNC(=O)c3cc(-c4ccccn4)nc4ccccc34)c2c1
789 s	CC1(C(=O)NCc2ccccc2Cl)Cn2cnc(C(=O)NCc3ccccc3)c2C(=O)N1C1CC1 (stereo not given)
1190 s	CCCCCn1c(=O)c2c(nc3n2CCCCN3c2ccc(OCC)cc2)n(C)c1=O
1190 s	COc1cccc(Cn2nc(-c3nc(-c4ccc(Cl)cc4)no3)ccc2=O)c1
557 s	Fc1ccc(-c2nc3ccccc3[nH]2)cc1
879 s	CCc1nnc(-c2ccc3ccn(CC(=O)Nc4cc(F)ccc4F)c3c2)o1
863 s	COc1ccccc1C(=O)N1CCC2(CC1)N=C(c1ccc(Br)cc1)C(=O)N2
855 s	CCn1cc(S(=O)(=O)NCc2ccc(F)cc2Cl)c2cccnc21
760 s	CCc1cccc(NS(=O)(=O)c2cc(-c3[nH]ncc3C(=O)N3CCCC3)oc2C)c1
726 s	NC(=O)c1ccc2c(c1)CCCN2S(=O)(=O)c1ccccc1
581 s	CN1CCN(CCCNC(=O)C2CCc3sc(C(=O)N4CCCCCC4)cc3C2)CC1 (stereo not given)
641 s	COCCNC(=O)CSc1nc(-c2ccccc2)[nH]c1-c1ccccc1
648 s	Cc1ccc(CNc2cc(-n3ccnc3)ncn2)cc1
698 s	Cc1cc(C(=O)N2CCCCCC2c2nnc(C)o2)no1 (stereo not given)
614 s	CC1CCc2[nH]nc(C(N)=O)c2C1 (stereo not given)
990 s	Cc1ccc(CN2CCN(C3CCN(S(=O)(=O)c4ccc(C)c(Cl)c4)CC3)C(=O)C2=O)cc1
969 s	Cc1cc(C)n(-c2ccc(C(=O)N3CCN(c4ccc(F)c(Cl)c4)CC3)nn2)n1
947 s	O=C(Oc1cccnc1)c1cn(-c2ccc(Cl)cc2)c(=O)c2ccccc12
